The values below come from ChEMBL document CHEMBL5137124, “Mutasynthesis Generates Antibacterial Benzothiophenic-Containing Nosiheptide Analogues” (2022).

Each structure is given as a SMILES string. ≈ marks a conversion by molar mass, not a printed value. Some results are limits rather than exact numbers.

What all share (type): functional
Experiment [1] deals with Staphylococcus aureus. In words: Antibacterial activity against gram positive methicillin-resistant Staphylococcus aureus HCCB 20252 assessed as inhibition of bacterial growth incubated for 20 hrs by microtiter plate method.
The test system of experiment [2] is Enterococcus faecium. In words: Antibacterial activity against gram positive vancomycin-sensitive Enterococcus faecium CICC 6049 assessed as inhibition of bacterial growth incubated for 20 hrs by microtiter plate method.
Experiment [3] has as its system Staphylococcus aureus. In words: Antibacterial activity against gram positive methicillin-sensitive Staphylococcus aureus ATCC 6538 assessed as inhibition of bacterial growth incubated for 20 hrs by microtiter plate method.
The test system of experiment [4] is Staphylococcus aureus. In words: Antibacterial activity against gram positive methicillin-resistant Staphylococcus aureus ATCC 43300 assessed as inhibition of bacterial growth incubated for 20 hrs by microtiter plate method.
Experiment [5] relates to Enterococcus faecium. In words: Antibacterial activity against gram positive vancomycin-resistant Enterococcus faecium ATCC 51559 assessed as inhibition of bacterial growth incubated for 20 hrs by microtiter plate method.
The subject of experiment [6] is Staphylococcus aureus. In words: Antibacterial activity against gram positive methicillin-resistant Staphylococcus aureus HCCB 20251 assessed as inhibition of bacterial growth incubated for 20 hrs by microtiter plate method.
In experiment [7] the test system is Staphylococcus aureus. In words: Antibacterial activity against gram positive methicillin-sensitive Staphylococcus aureus ATCC 25923 assessed as inhibition of bacterial growth incubated for 20 hrs by microtiter plate method.
Experiment [8] deals with Enterococcus faecium. The experiment can be described thus: Antibacterial activity against gram positive vancomycin-sensitive Enterococcus faecium CICC 20419 assessed as inhibition of bacterial growth incubated for 20 hrs by microtiter plate method.

As a reminder, the MIC is the smallest concentration in the dilution series that meets the test's criterion for growth inhibition. Turning to `C=C(NC(=O)c1csc(-c2nc3c(cc2O)-c2nc(cs2)C(=O)N[C@@H]([C@@H](C)O)C(=O)N/C(=C\C)c2nc(cs2)C(=O)N[C@H]2CCC(=O)OCc4cccc5sc(c(C)c45)C(=O)SC[C@H](NC(=O)c4csc2n4)c2nc-3cs2)n1)C(N)=O`, the MIC in the experiment on Staphylococcus aureus [1] came out at 0.008 µg/mL (≈ 0.00654 µM); in the experiment on Enterococcus faecium [2] it was 0.064 µg/mL (≈ 0.0523 µM); in the experiment on Staphylococcus aureus [3], 0.004 µg/mL (≈ 0.00327 µM); with Staphylococcus aureus [4], 0.008 µg/mL (≈ 0.00654 µM); with Enterococcus faecium [5], 0.032 µg/mL (≈ 0.0262 µM); in the experiment with Staphylococcus aureus [6] it was 0.016 µg/mL (≈ 0.0131 µM). Also, the MIC in the experiment on Staphylococcus aureus [7] was determined as 0.032 µg/mL (≈ 0.0262 µM); in the experiment with Enterococcus faecium [8], 0.064 µg/mL (≈ 0.0523 µM).
For `CN[C@H](CC(C)C)C(=O)N[C@H]1C(=O)N[C@@H](CC(N)=O)C(=O)N[C@H]2C(=O)N[C@H]3C(=O)N[C@H](C(=O)N[C@H](C(=O)O)c4cc(O)cc(O)c4-c4cc3ccc4O)[C@H](O)c3ccc(c(Cl)c3)Oc3cc2cc(c3O[C@@H]2O[C@H](CO)[C@@H](O)[C@H](O)[C@H]2O[C@H]2C[C@](C)(N)[C@H](O)[C@H](C)O2)Oc2ccc(cc2Cl)[C@H]1O` [VANCOMYCIN], in the experiment with Enterococcus faecium [5], the MIC is > 128 µg/mL.
Take `C=C(NC(=O)C(=C)NC(=O)c1csc(-c2ccc3c(n2)-c2csc(n2)[C@@H]2CSC(=O)c4[nH]c5cccc(c5c4C)COC(=O)CC[C@H](NC(=O)c4csc(n4)/C(=C/C)NC(=O)[C@H]([C@@H](C)O)NC(=O)c4csc-3n4)c3nc(cs3)C(=O)N2)n1)C(=O)O`: the MIC is 0.064 µg/mL (≈ 0.0508 µM) in the experiment on Staphylococcus aureus [1]; > 1.02 µg/mL with Enterococcus faecium [2]; 0.016 µg/mL (≈ 0.0127 µM) with Staphylococcus aureus [3]; 0.032 µg/mL (≈ 0.0254 µM) with Staphylococcus aureus [4]; 0.512 µg/mL (≈ 0.406 µM) in the experiment on Enterococcus faecium [5]; 0.064 µg/mL (≈ 0.0508 µM) with Staphylococcus aureus [6]. The figures for the MIC in the experiment with Staphylococcus aureus [7] and in the experiment with Enterococcus faecium [8] were 0.016 µg/mL (≈ 0.0127 µM) and 1.02 µg/mL (≈ 0.812 µM), respectively.
Consider `C=C(NC(=O)c1csc(-c2nc3c(cc2O)-c2nc(cs2)C(=O)N[C@@H]([C@@H](C)O)C(=O)N/C(=C\C)c2nc(cs2)C(=O)N[C@H]2C[C@H](O)C(=O)OCc4cccc5[nH]c(c(C)c45)C(=O)SC[C@H](NC(=O)c4csc2n4)c2nc-3cs2)n1)C(N)=O`, for which the MIC in the experiment with Staphylococcus aureus [1] was 0.008 µg/mL (≈ 0.00654 µM); in the experiment with Enterococcus faecium [2] it was 0.016 µg/mL (≈ 0.0131 µM); in the experiment on Staphylococcus aureus [3], 0.002 µg/mL (≈ 0.00164 µM); in the experiment on Staphylococcus aureus [4], 0.008 µg/mL (≈ 0.00654 µM); in the experiment with Enterococcus faecium [5] it was ≤ 0.008 µg/mL; in the experiment on Staphylococcus aureus [6], 0.008 µg/mL (≈ 0.00654 µM). The values for the MIC with Staphylococcus aureus [7] and with Enterococcus faecium [8] were 0.008 µg/mL (≈ 0.00654 µM) and 0.032 µg/mL (≈ 0.0262 µM), respectively.
On to `C=C(NC(=O)C(=C)NC(=O)c1csc(-c2ccc3c(n2)-c2csc(n2)[C@@H]2CSC(=O)c4sc5cccc(c5c4C)COC(=O)CC[C@H](NC(=O)c4csc(n4)/C(=C/C)NC(=O)[C@H]([C@@H](C)O)NC(=O)c4csc-3n4)c3nc(cs3)C(=O)N2)n1)C(=O)O`, for which the MIC worked out at 0.032 µg/mL (≈ 0.025 µM) with Staphylococcus aureus [1]; 1.02 µg/mL (≈ 0.802 µM) with Enterococcus faecium [2]; 0.016 µg/mL (≈ 0.0125 µM) in the experiment on Staphylococcus aureus [3]; 0.032 µg/mL (≈ 0.025 µM) in the experiment with Staphylococcus aureus [4]; 0.512 µg/mL (≈ 0.401 µM) in the experiment with Enterococcus faecium [5]; 0.064 µg/mL (≈ 0.0501 µM) in the experiment on Staphylococcus aureus [6]. Also, the MIC in the experiment with Staphylococcus aureus [7] amounted to 0.032 µg/mL (≈ 0.025 µM); with Enterococcus faecium [8], 1.02 µg/mL (≈ 0.802 µM).
In the case of `C=C(NC(=O)c1csc(-c2nc3c(cc2O)-c2nc(cs2)C(=O)N[C@@H]([C@@H](C)O)C(=O)N/C(=C\C)c2nc(cs2)C(=O)N[C@H]2C[C@H](O)C(=O)OCc4cccc5sc(c(C)c45)C(=O)SC[C@H](NC(=O)c4csc2n4)c2nc-3cs2)n1)C(N)=O`, the MIC in the experiment with Staphylococcus aureus [1] was determined as 0.008 µg/mL (≈ 0.00645 µM); in the experiment on Enterococcus faecium [2] it was 0.064 µg/mL (≈ 0.0516 µM); in the experiment with Staphylococcus aureus [3] it was 0.004 µg/mL (≈ 0.00323 µM); with Staphylococcus aureus [4], 0.008 µg/mL (≈ 0.00645 µM); in the experiment with Enterococcus faecium [5], 0.016 µg/mL (≈ 0.0129 µM); in the experiment on Staphylococcus aureus [6], 0.016 µg/mL (≈ 0.0129 µM). Also, the MIC in the experiment on Staphylococcus aureus [7] was 0.008 µg/mL (≈ 0.00645 µM); with Enterococcus faecium [8], 0.064 µg/mL (≈ 0.0516 µM).
